{"source": "patent US20260248852A1", "about": "“SYNTHETIC ANTIGEN RECEPTORS FOR COVALENT IMMUNE RECRUITERS AND METHODS AND USES THEREOF” (McMaster University, priority 2022, published 2026)", "assay_type_in_all_cases": "cell-based, human", "key": {"293-PSMA cells [1]": {"system": "293-PSMA cells", "assay": "Proliferation of adapter functionalized engineered ABT cells (CellTrace Violet)", "method": "Each engineered T cell was also cultured in media alone as a control to compare to. All proliferation assay samples were incubated for 3 days at 37° C. and 5% CO2. Cells were then stained with Live/Dead Fixable Near-IR stain, PerCP-Cy5.5-conjugated mouse anti-human CD8a, Alexa Fluor 700-conjugated mouse anti-human CD4, VioBright FITC-conjugated mouse anti-human NGFR, and BV605-conjugated mouse anti-human CD3. Flow cytometry data were acquired."}, "[2]": {"system": "293-WT cells (do not express PSMA)", "assay": "CD69 and Nur77 expression of ABT cells with 293-WT cells", "conditions": "engineered ABT cells, 100 nM", "from_the_text": "(§1) Cells were stained for surface marker expression via Pacific Blue-conjugated mouse anti-human CD4, and AlexaFluor700-conjugated mouse anti-human CD8a, VioBright FITC-conjugated mouse anti-human NGFR, and anti-huCD69, fixed and permeabilized in Permiabilization concentrate diluted in permeabilization diluent, and stained intracellularly with PE-conjugated mouse anti-mouse Nur77."}, "[3]": {"system": "PSMA transduced HEK-293 cells", "assay": "IFN-gamma / TNF-alpha production of Anti-DNP TAC ABT cells following stimulation with HEK-293 PSMA cells", "conditions": "Anti-DNP TAC ABT cells prelabelled 6 hours; co-culture 4 hours", "method": "The cells were co-cultured together for 4 hours at 37 degrees. Golgi plug was added prior to the co-incubation to prevent cytokine secretion. To stop the activation 20 mM EDTA was added and incubated for 15 minutes. The cells were spun down, media was aspirated, and the cells were stored in 200 μL of cRPMI overnight at 4 degrees. The next day, the cells were surface stained with anti-CD4 Pacific Blue, anti-CD8 Alexa Fluor 700, and anti-NGFR Viobright FITC. The cells were then fixed and permeabilized using a fix/perm buffer solution. The cells were then intracellularly stained with anti-CD3 BV605, anti-TNF-alpha PE-CY7, and anti-IFN-gamma APC. Cells were then run on the Beckman Coulter Cytoflex flow cytometer. The percent of cells positive for TNF-alpha and IFN-gamma, as well as cells positive for both were recorded in the table for the separate CD4 and CD8 T-cell populations."}, "[4]": {"system": "PSMA-positive LNCaP cells", "assay": "Anti-DNP GDT cell mediated killing of LNCaP cells (Incucyte)", "method": "Measuring T cell mediated killing of LNCaP cells: LNCaP prostate cancer cells, which are prostate specific membrane antigen (PSMA) positive, were engineered with Nuclight Red lentivirus to produce cells with nuclear localized red fluorescence to allow for ease of imaging in these experiments. […] Samples were run in triplicate. The number of LNCaP cells per well at each time point was calculated using the Incucyte cell by cell analysis software and plotted. The area under the growth curve was used as a metric for tumor cell growth for this figure. The larger the area, the greater the tumor cell growth that occurred over the 3 days. The area under the curve for the LNCaP control and each condition were used to calculate the % cytotoxicity."}, "[5]": {"system": "PSMA transduced HEK-293 cells", "assay": "CD69 upregulation of DNP-TAC T cells following stimulation with HEK-293 PSMA cells", "conditions": "DNP-TAC T cells pre labelled 6 hours; co-culture overnight", "method": "The cells were co-cultured together overnight at 37 degrees. To stop the activation, 20 mM EDTA was added and incubated for 15 minutes. The cells were spun down, media was aspirated, and the cells were stored in 200 μL of cRPMI at 4 degrees prior to staining. The cells were stained with Live-Dead Zombie Aqua, anti-CD3 BV605, anti-CD4 Pacific Blue, anti-CD8 Alexa Fluor 700, anti-NGFR Viobright FITC, and anti-CD69 BV650. Upon staining the cells were run on the Beckman Coulter Cytoflex flow cytometer and analyzed for CD69 expression."}, "HEK293-WT cells": {"system": "HEK293-WT cells", "assay": "Cytokine production of engineered ABT cells, controls with 293-WT cells or no tumor cells", "conditions": "Media+CIR; 293-WT+CIR", "method": "(§2) Measuring cytokine production following stimulation with HEK-293 cells: In a 96 well round bottom plate, 4E5 HEK293-PSMA cells (PSMA expressing) or HEK293-WT cells were incubated with 4E5 Anti-DNP TAC ABT cells, Anti-DNP DAP12 SAR ABT cells, or Anti-CD28 CAR ABT-cells. […] To stop the activation 20 mM EDTA was added and incubated for 15 minutes. Cells were stained for surface expression of CD4 and CD8, fixed and permeabilized in Cytofix/Cytoperm buffer, and stained with APC-conjugated mouse anti-human interferon-gamma, and FITC-conjugated mouse anti-human tumor necrosis factor-alpha. Cells were then run on the Beckman Coulter Cytoflex flow cytometer. The percent of cells positive for tumor necrosis factor-alpha and interferon-gamma for CD4 and CD8 T-cell populations were graphed separately showing the same overall trends."}, "[6]": {"system": "PSMA-positive LNCaP cells", "assay": "Anti-DNP TAC ABT cell mediated killing of LNCaP cells (Incucyte)", "method": "Measuring T cell mediated killing of LNCaP cells: LNCaP prostate cancer cells, which are prostate specific membrane antigen (PSMA) positive, were engineered with Nuclight Red lentivirus to produce cells with nuclear localized red fluorescence to allow for ease of imaging in these experiments. […] The 3 components were co-cultured for 3 days with 4 images per well taken every 6 hours. Samples were run in triplicate. The number of LnCap cells per well at each time point was calculated using the Incucyte cell by cell analysis software and plotted. The area under the growth curve was used as a metric for tumor cell growth for this figure. The larger the area, the greater the tumor cell growth that occurred over the 3 days. The area under the curve for the LnCap control and each condition were used to calculate the % cytotoxicity."}, "293-PSMA cells [7]": {"system": "293-PSMA cells", "assay": "CD69 and Nur77 expression of activated ABT cells with 293-PSMA cells", "from_the_text": "as §1"}, "[8]": {"system": "HEK293-PSMA cells (PSMA expressing)", "assay": "Cytokine production of engineered ABT cells following stimulation with HEK293-PSMA cells", "method": "as §2"}, "uPAR-positive A172 cells": {"system": "uPAR-positive A172 cells", "assay": "Anti-DNP GDT cell mediated killing of A172 cells", "conditions": "Anti-DNP CD28 CAR GDT cells; E:T 8:1; 1, 10, 100 nM; 3 days", "method": "Engineering GDT cells with Anti-DNP DAP12-SAR or Anti-DNP CD28 CAR: PBMC were seeded at 4E6 cells per well in a 24 well G-Rex plate in the presence of 1 ug/ml zoledronate and 1.5 ng/ml human IL2. Three days later, the cells were incubated overnight in a 24 well non tissue culture treated plate that was pre coated with retronectin and retrovirus supernatant containing viruses encoding the Anti-DNP DAP12-SAR or Anti-DNP CD28 CAR. The cells were then transferred back to the G-Rex plate and cultured for a further 11 days at which point, the cell product was collected, CD4/CD8 T cells were removed by magnetic selection and the purified engineered GDT cells were cryopreserved.\nMeasuring T cell mediated killing of A172 cells: A172 cells, which are urokinase type plasminogen activator receptor (uPAR) positive, were engineered with eGFP lentivirus to produce green fluorescent protein expressing cells. […] Also added to the wells were uPAR-CIR or uPAR-(N)CIR at a range of concentrations from 1 nM, 10 nM and 100 nM. […] Samples were run in triplicate. The green image mean of the wells at each time point was calculated using the Incucyte cell by cell analysis software and plotted to yield the following figures. […] For the analysis of killing by Anti-DNP CD28 CAR GDT cells, the area under the growth curve (AUC) was analyzed using PRISM Graphpad and to calculate the % cytotoxicity."}}, "note": "Entries after “also recorded” stand apart in the source; their conditions may differ."}
{"smiles": "O=C(O)CC[C@H](NC(=O)N[C@@H](CCCCNC(=O)NCCOCCOCCOCCOCCOCCOCCOCCOC(=O)n1cnc(CCNC(=O)CNc2ccc([N+](=O)[O-])cc2[N+](=O)[O-])c1)C(=O)O)C(=O)O", "note": "[PSMA-CIR, DNP-Acyl Imidazole-Glutamate Urea Lysine]", "values": [{"measurement": "T cell proliferation, PSMA-CIR versus PSMA-(N)CIR", "setting": "293-PSMA cells [1]; Anti-DNP CD28 CAR T cells", "result": "performed similarly"}, {"measurement": "T cell proliferation (percent divided)", "setting": "293-PSMA cells [1]; Anti-DNP DAP12 SAR T cells, 1 nM, 10 nM, or 100 nM", "result": "robust proliferation"}, {"measurement": "T cell proliferation (percent divided)", "setting": "293-PSMA cells [1]; Anti-DNP TAC T cells, 1, 10, 100 nM, 3 days", "result": "only entered proliferation when co-cultured with 293-PSMA cells and 100 nM PSMA-CIR"}, {"measurement": "Nur77 and CD69 (off-target activation)", "setting": "[2]", "result": "no increase of Nur77 or CD69 above the media-only control"}, {"measurement": "production of IFN-gamma and TNF-alpha", "setting": "[3]", "result": "production of IFN-gamma and TNF-alpha"}, {"measurement": "adapter concentration at which tumor killing is observed", "setting": "[4]; Anti-DNP CD28 CAR GDT cells", "result": "≤ 15", "unit": "nM"}, {"measurement": "killing of LNCaP cells", "setting": "[4]; Anti-DNP CD28 CAR GDT cells, 125 nM adapter", "result": "could direct T cell cytotoxicity; also recorded: displayed tumor growth control"}, {"measurement": "killing of LNCaP cells", "setting": "[4]; Anti-DNP DAP12-SAR GDT cells, 125 nM adapter", "result": "could trigger killing; also recorded: only suppressed tumor growth in the presence of the PSMA-CIR"}, {"measurement": "adapter concentration at which tumor killing is observed", "setting": "[4]; Anti-DNP DAP12 SAR GDT cells", "result": "≤ 15", "unit": "nM"}, {"measurement": "killing of LNCaP cells after preincubation and wash", "setting": "[4]; Anti-DNP DAP12 SAR and Anti-DNP CD28 CAR GDT cells, 1 uM adapter for 6 hours, washed, then co-culture", "result": "retained the ability to kill LNCaP cells"}, {"measurement": "killing of LNCaP cells", "setting": "[4]; CD28 CAR GDT cells, 10 nM adapter", "result": "robust LNCaP killing"}, {"measurement": "LNCaP killing over a range of concentrations", "setting": "[4]; both Anti-DNP DAP12-SAR GDT cells and Anti-DNP CD28 CAR GDT cells, 15.6 nM-250 nM", "result": "sustained across all concentrations"}, {"measurement": "T cell activation based on upregulation of CD69", "setting": "[5]", "result": "PSMA-specific activation; also recorded: capable of stimulating Anti-DNP TAC T cell activation"}, {"measurement": "cytokine production in controls", "setting": "HEK293-WT cells", "result": "the controls showed no cytokine production"}, {"measurement": "killing of LNCaP cells", "setting": "[6]; E:T 8:1, 15.63 nM to 125 nM, 3 days", "result": "could trigger killing; also recorded: promoted killing of the LNCaP cells at low nM concentrations"}, {"measurement": "concentration effective at engaging tumor killing", "setting": "[6]; E:T 8:1, 3 days", "result": "≤ 15", "unit": "nM"}, {"measurement": "T cell activation (Nur77, CD69), compared to PSMA-(N)CIR", "setting": "293-PSMA cells [7]; Anti-DNP DAP12-SAR T cells, 10 nM and 1 nM", "result": "greater activation at both concentrations"}, {"measurement": "T cell activation (Nur77, CD69)", "setting": "293-PSMA cells [7]; Anti-DNP TAC-T cells, 10 nM and 1 nM", "result": "could elicit T cell activation"}, {"measurement": "T cell activation (Nur77, CD69), compared to PSMA-(N)CIR", "setting": "293-PSMA cells [7]; Anti-DNP-CD28 CAR T cells", "result": "much greater activation"}, {"measurement": "upregulation of Nur77 and CD69", "setting": "293-PSMA cells [7]; TAC, DAP12-SAR and CD28-CAR ABT cells, 293-PSMA, 100 nM, 4 hours", "result": "Upregulation of Nur77 and CD69; also recorded: only occurred in the presence of CIR and PSMA-expressing target cells"}, {"measurement": "upregulation of Nur77 and CD69, CIR compared to (N)CIR", "setting": "293-PSMA cells [7]; all engineered ABT cells, 293-PSMA, 10 nM and 1 nM", "result": "stronger with CIR compared to (N)CIR; also recorded: increased activation and downstream signal strength"}, {"measurement": "cytokine production, compared to PSMA-(N)CIR", "setting": "[8]; CD28-CAR T cells, 1 nM, 10 nM", "result": "increased cytokine production at lower concentrations"}, {"measurement": "cytokine production", "setting": "[8]; CD28-CAR T cells, highest concentration (100 nM)", "result": "equivalent levels of cytokine production"}, {"measurement": "cytokine production", "setting": "[8]; DAP12-SAR T cells, 1, 10, 100 nM", "result": "strongest activation was mediated by the CIR"}, {"measurement": "cytokine production", "setting": "[8]; TAC T cells, 1, 10, 100 nM", "result": "only activated by the CIR"}, {"measurement": "production of interferon-gamma and tumor necrosis factor-alpha", "setting": "[8]; all three engineered receptors (TAC, DAP12-SAR, CD28-CAR) ABT cells, 1, 10, 100 nM", "result": "target specific production of interferon-gamma and tumor necrosis factor-alpha; also recorded: Increased cytokine production"}]}
{"smiles": "CC(C)C[C@H](NC(=O)[C@H](Cc1ccc(O)cc1)NC(=O)[C@@H](CCCNC(=N)N)NC(=O)[C@@H](CO)NC(=O)[C@H](Cc1ccccc1)NC(=O)[C@H](CC1CCCCC1)NC(=O)[C@H](CC(=O)O)NC(=O)CNC(=O)[C@H](CO)NC(=O)CNC(=O)CNC(=O)[C@H](CCCCNc1ccc([N+](=O)[O-])cc1[N+](=O)[O-])NC(=O)c1cccc(S(=O)(=O)F)c1)C(=O)N[C@@H](Cc1c[nH]c2ccccc12)C(=O)N[C@@H](CO)C(=O)O", "note": "[uPAR-CIR, DNP-SuFEx-uPAR binding peptide]", "values": [{"measurement": "cytotoxicity towards A172 cells", "setting": "uPAR-positive A172 cells", "result": "exhibited cytotoxicity; also recorded: can be redirected"}]}
